Test results reported in publication PMC3050028 (Neuron, 2011).

Molecular target: T1, IR84a (Drosophila melanogaster, UniProt Q9VIA5)
T1 sequence (Q9VIA5 25-644): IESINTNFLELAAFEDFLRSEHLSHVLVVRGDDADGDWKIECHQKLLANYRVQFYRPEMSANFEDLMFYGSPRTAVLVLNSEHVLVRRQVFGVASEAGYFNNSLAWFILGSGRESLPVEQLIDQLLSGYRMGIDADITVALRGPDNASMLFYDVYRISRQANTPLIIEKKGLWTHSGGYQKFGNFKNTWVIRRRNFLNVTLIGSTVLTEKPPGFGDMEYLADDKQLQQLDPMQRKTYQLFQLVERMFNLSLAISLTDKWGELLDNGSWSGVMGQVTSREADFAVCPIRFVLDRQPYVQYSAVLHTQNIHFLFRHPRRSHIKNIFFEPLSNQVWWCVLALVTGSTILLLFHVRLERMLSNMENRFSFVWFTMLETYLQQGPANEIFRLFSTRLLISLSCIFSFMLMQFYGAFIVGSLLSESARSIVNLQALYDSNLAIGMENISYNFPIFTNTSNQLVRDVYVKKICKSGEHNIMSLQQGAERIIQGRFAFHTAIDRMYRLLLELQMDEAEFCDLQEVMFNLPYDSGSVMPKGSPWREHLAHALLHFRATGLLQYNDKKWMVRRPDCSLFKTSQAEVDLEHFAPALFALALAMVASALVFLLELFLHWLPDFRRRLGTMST
T1 sequence (Q9W365 18-936 partner): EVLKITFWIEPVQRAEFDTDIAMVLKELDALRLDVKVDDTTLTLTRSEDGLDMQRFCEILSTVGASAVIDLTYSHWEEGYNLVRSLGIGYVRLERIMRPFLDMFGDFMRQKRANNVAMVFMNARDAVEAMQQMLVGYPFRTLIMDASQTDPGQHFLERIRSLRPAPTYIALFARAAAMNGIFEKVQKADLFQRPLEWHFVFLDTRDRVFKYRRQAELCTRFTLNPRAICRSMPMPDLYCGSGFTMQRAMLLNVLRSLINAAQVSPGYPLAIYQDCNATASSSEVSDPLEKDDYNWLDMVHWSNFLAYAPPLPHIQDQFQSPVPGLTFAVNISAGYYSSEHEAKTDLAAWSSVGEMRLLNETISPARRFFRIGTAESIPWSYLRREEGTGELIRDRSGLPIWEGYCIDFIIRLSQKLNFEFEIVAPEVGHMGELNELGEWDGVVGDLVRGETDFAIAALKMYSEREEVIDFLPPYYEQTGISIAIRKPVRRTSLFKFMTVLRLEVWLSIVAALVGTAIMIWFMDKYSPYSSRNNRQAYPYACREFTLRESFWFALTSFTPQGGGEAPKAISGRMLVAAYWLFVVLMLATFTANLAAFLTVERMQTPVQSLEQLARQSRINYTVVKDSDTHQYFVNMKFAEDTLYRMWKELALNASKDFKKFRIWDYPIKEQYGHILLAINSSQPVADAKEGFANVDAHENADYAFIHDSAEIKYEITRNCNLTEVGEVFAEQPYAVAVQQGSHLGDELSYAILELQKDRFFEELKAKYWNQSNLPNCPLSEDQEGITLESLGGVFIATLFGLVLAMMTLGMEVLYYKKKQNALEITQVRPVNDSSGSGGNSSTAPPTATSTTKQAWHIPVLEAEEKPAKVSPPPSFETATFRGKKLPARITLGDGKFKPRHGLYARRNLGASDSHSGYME
Format: cell-based

IC50: 39 ± 9 µM
SMILES: CC12CC3CC(C)(C1)CC(N)(C3)C2 [memantine]
